Laboratory results: ChEMBL document CHEMBL3393013, “Structural Insights for the Optimization of Dihydropyrimidin-2(1H)-one Based mPGES-1 Inhibitors” (ACS Med Chem Lett, 2015)

Molecular target: T1, Prostaglandin E synthase (Homo sapiens, UniProt O14684)
T1 sequence (O14684 whole entry): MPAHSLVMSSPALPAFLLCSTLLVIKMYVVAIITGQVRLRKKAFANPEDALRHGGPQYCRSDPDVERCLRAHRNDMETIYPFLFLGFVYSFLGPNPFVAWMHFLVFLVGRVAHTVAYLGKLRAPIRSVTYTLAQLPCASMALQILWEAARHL
Assay: Inhibition of mPGES-1 in interleukin-1beta-stimulated human A549 cells microsomal membranes assessed as reduction in PGE2 formation incubated for 15 mins in presence of PGH2 and glutathione by RP-HPLC method
Assay type: cell-based

Row | IC50 | Compound
1 | 5600 nM | CC1=C(C(=O)c2cc(Br)ccc2O)C(c2ccc(-c3cccc(C(F)(F)F)c3)o2)NC(=O)N1 (stereo not drawn)
2 | 1400 nM | CC1=C(C(=O)OCc2ccccc2)C(c2ccc(-c3cccc(C(F)(F)F)c3)o2)NC(=O)N1 (stereo not drawn)
3 | 410 nM | CC1=C(C(=O)OCc2ccccc2)C(c2ccc(-c3cccc(C(F)(F)F)c3)o2)NC(=O)N1CCC(=O)O (stereo not drawn)
